Test results: patent USRE35053E, “Amines useful in producing pharmaceutically active CNS compounds” (The Upjohn Company, priority 1992, dated 1995)
Where a name gives a salt, the structure may show the parent alone.

The compounds below were run on arachidonic acid (assay: Arachidonic Acid Antagonism Assay (AAAA)). Settings: mice; 100 mg/kg; LD50 of sodium arachidonate.
Type: in vivo, mouse (Charles River male CF-1)
Protocol: While not necessary to determine arachidonic acid antagonism, the above assay has been modified as follows: Charles River male CF-1 mice weighing […] are treated IV with the test compound dissolved in 1.0% Tween-80 and 0.1% hydrochloric acid in distilled water. 0 2 ml total volume. Fifteen minutes later sodium arachidonate (90% pure) in physiological (normal) […] is injected into the tail vein. The LD50 is measured using the Spearman-Karber method with a log dose interval of 0.05 (N-6). Compounds which elevate the LD50 outside of the 95% confidence interval of the control LD50 are considered to be "active".

SMILES	% of Control LD50
CCN(CC)c1cc(N2CCN(C(=O)[C@@]3(O)CC[C@H]4[C@@H]5CCC6=CC(=O)CC[C@]6(C)[C@H]5CC[C@@]43C)CC2)nc(N(CC)CC)n1 [Example 57]	124%

Same assay, conditions: mice; IV, 15 min before sodium arachidonate; outside 95% confidence interval of control LD50

SMILES	arachidonic acid antagonism (elevation of LD50 of arachidonic acid)
C=CCNc1nc(NCC=C)nc(N2CCN(CC(=O)[C@@]3(O)CC[C@H]4[C@@H]5CCC6=CC(=O)CC[C@]6(C)C5=CC[C@@]43C)CC2)n1.Cl.Cl.O [Example 60, 17α-hydroxy-21-[4-[4,6-bis(2-propenylamino)-1,3,5-triazin-2-yl]-1-piperazinyl]pregna-4,9(11)-diene-3,20-dione dihydrochloride hydrate]	demonstrate arachidonic acid antagonism
C[C@]12C=CC(=O)C=C1CC[C@@H]1[C@@H]2[C@@H](O)C[C@@]2(C)[C@H]1CC[C@]2(O)C(=O)CN1CCN(c2ccccn2)CC1 [Example 25, 11β,17α-dihydroxy-21-[4-(2-pyridinyl)-1-piperazinyl]-pregna-1,4-diene-3,20-dione dihydrochloride]	demonstrate arachidonic acid antagonism
C[C@]12CCC(=O)C=C1CC[C@@H]1[C@@H]2[C@H](O)C[C@@]2(C)[C@H]1CC[C@]2(O)C(=O)CN1CCN(c2ccc(F)cc2)CC1 [Example 29, 21-[4-(4-fluorophenyl)-1-piperazinyl]-11α,17α-dihydroxypregn-4-ene-3,20-dione dihydrochloride]	demonstrate arachidonic acid antagonism
C[C@]12CCC(=O)C=C1CC[C@@H]1C2=CC[C@@]2(C)[C@H]1CC[C@]2(O)C(=O)CN1CCN(Cc2ccccn2)CC1 [Example 54, 17α-hydroxy-21-[4-(2-pyridinylmethyl)-1-piperazinyl]-pregna-4,9(11)-diene-3,20-dione(E)-2-butenedioate 1:1 salt]	demonstrate arachidonic acid antagonism
COc1cccc(N2CCN(CC(=O)[C@@]3(O)CC[C@H]4[C@@H]5CCC6=CC(=O)CC[C@]6(C)C5=CC[C@@]43C)CC2)n1.CS(=O)(=O)O [Example 22, 17α-hydroxy-21-[4-(6-methoxy-2-pyridinyl)-1-piperazinyl]pregna-4,9(11)-diene-3,20-dione monomethanesulfonate]	demonstrate arachidonic acid antagonism
COc1ccc(CCN(CC(=O)[C@@]2(O)CC[C@H]3[C@@H]4CCC5=CC(=O)CC[C@]5(C)C4=CC[C@@]32C)Cc2ccc(N(C)C)cc2)cc1OC [Example 51, 17α-hydroxy-21-[[2-(3,4-dimethoxyphenyl)ethyl]-4-(dimethylamino)phenyl]methyl]amino]pregna-4,9(11)-3,20-dione hydrochloride]	demonstrate arachidonic acid antagonism
CCN(CC)c1cc(N2CCN(C(=O)[C@@]3(O)CC[C@H]4[C@@H]5CCC6=CC(=O)CC[C@]6(C)[C@H]5CC[C@@]43C)CC2)nc(N(CC)CC)n1 [Example 57]	demonstrate arachidonic acid antagonism
CCN(CC)c1cc(N2CCN(CC(=O)[C@@]3(O)CC[C@H]4[C@@H]5CCC6=CC(=O)CC[C@]6(C)[C@H]5CC[C@@]43C)CC2)nc(N(CC)CC)n1 [Example 53, 21-[4-[2,-bis(diethylamino)-4-pyrimidinyl]-1-piperazinyl]-17α-hydroxypregn-4-ene-3,20-dione]	demonstrate arachidonic acid antagonism
C[C@]12C=CC(=O)C=C1CC[C@@H]1C2=CC[C@@]2(C)[C@H]1CC[C@]2(O)C(=O)CN1CCN(c2cc(N3CCCC3)nc(N3CCCC3)n2)CC1.Cl.Cl.O [Example 74, 17α-hydroxy-21-[4-[2,6-di-(1-pyrrolidinyl)-4-pyrimidinyl]-1-piperazinyl]pregna-1,4,9(11)-triene-3,20-dione dihydrochloride hydrate]	demonstrate arachidonic acid antagonism
CCN(CC)c1cc(N2CCN(CC(=O)[C@@]3(O)CC[C@H]4[C@@H]5CCC6=CC(=O)C=C[C@]6(C)C5=CC[C@@]43C)CC2)nc(N(CC)CC)n1.Cl.Cl.O [Example 75, 21-[4-[2,6-bis(diethylamino)-4-pyrimidinyl]-1-piperazinyl]-17α-hydroxypregna-1,4,9(11)-triene-3,20-dione dihydrochloride hydrate]	demonstrate arachidonic acid antagonism
CN1CCN(c2cc(N3CCN(CC(=O)[C@@]4(O)CC[C@H]5[C@@H]6CCC7=CC(=O)CC[C@]7(C)C6=CC[C@@]54C)CC3)nc(N3CCN(C)CC3)n2)CC1.CS(=O)(=O)O.O [Example 19, 17α-Hydroxy-21-[4-[2,6-bis(4-methyl 1 piperazinyl)-4-pyrimidinyl]-1-piperazinyl]pregna-4,9(11)-diene-3,20-dione methanesulfonate hydrate]	demonstrate arachidonic acid antagonism
C[C@]12CC(=O)[C@H]3[C@@H](CCC4=CC(=O)CC[C@@]43C)[C@@H]1CC[C@@H]2C(=O)CN1CCN(c2ccccn2)CC1.Cl.O [Example 45, 21-[4-(2-pyridinyl)-1-piperazinyl]pregn-4-ene-3,11,20-trione hydrochloride hydrate]	demonstrate arachidonic acid antagonism

These compounds were tested on angiogenesis (assay: fertile egg or chick embryo assay of Folkman (inhibition of angiogenesis / tumor growth)). Settings: chick embryo; 50 μg/10 μl in the presence of heparin.
Type: in vivo
Protocol: According to this procedure compounds which are considered to be "active" (i.e, antiangiogenic) give an avascular zone of 4 mm or greater in some embryos when tested at 50 μg/10 μl in the presence of 50 μg/10 μ of heparin.

SMILES	% of Embryos with 4 mm or Greater A vascular Zone
C[C@H]1C[C@H]2[C@@H]3CC[C@H]4CC(=O)CC[C@]4(C)C3=CC[C@]2(C)[C@@]1(O)C(=O)CN1CCN(c2ccccn2)CC1.Cl.Cl.O [Example 44, 17α-hydroxy-16β-methyl-21-[4-(2-pyridinyl)-1-piperazinyl]-5α-pregn-9(11)-ene-3,20-dione dihydrochloride hydrate]	75%
C[C@]12CCC(=O)C=C1CC[C@@H]1[C@@H]2C(=O)C[C@@]2(C)[C@H]1CC[C@]2(O)C(=O)CN1CCN(c2ccccn2)CC1 [Example 20]	72%
COc1ccccc1N1CCN(CC(=O)[C@@]2(O)CC[C@H]3[C@@H]4CCC5=CC(=O)CC[C@]5(C)[C@H]4CC[C@@]32C)CC1.Cl.Cl.O [Example 41, 17α-hydroxy-21-[4-(2-methoxyphenyl)-1-piperazinyl]-pregn-4-ene-3,20-dione dihydrochloride hydrate]	80%

Same assay, conditions: chick embryo; 50 μg/10 μl with heparin; avascular zone 4 mm or greater

SMILES	inhibition of angiogenesis
C[C@]12CCC(=O)C=C1CC[C@@H]1C2=CC[C@@]2(C)[C@H]1CC[C@]2(O)C(=O)CN1CCN(C(=O)c2ccco2)CC1 [Example 6B, 17α-Hydroxy-21-[4-(2-furonylcarbonyl)-1-piperazinyl]-pregna-4,9(11)-diene-3,20-dione]	demonstrate inhibition of angiogenesis
COc1ccc(N2CCN(CC(=O)[C@@]3(O)CC[C@H]4[C@@H]5C[C@H](C)C6=CC(=O)C=C[C@]6(C)[C@H]5[C@@H](O)C[C@@]43C)CC2)cc1 [Example 33, 11β,17α-dihydroxy-21-[4-(4-methoxyphenyl)-1-piperazinyl]-6α-methylpregna-1,4-diene-3,20-dione dihydrochloride]	demonstrate inhibition of angiogenesis
COc1ccc(N2CCN(CC(=O)[C@@]3(O)CC[C@H]4[C@@H]5CCC6=CC(=O)CC[C@]6(C)[C@H]5[C@H](OC(=O)CC(C)(C)C)C[C@@]43C)CC2)cc1 [Example 32, 11α,17α-dihydroxy-21-[4-(4-methoxyphenyl)-1-piperazinyl]pregn-4-ene-3,20-dione 11-(3,3-dimethyl 1-butyrate) dihydrochloride]	demonstrate inhibition of angiogenesis
C[C@]12CCC(=O)C=C1CC[C@@H]1C2=CC[C@@]2(C)[C@H]1CC[C@]2(O)C(=O)CN1CCN(c2cc(N3CCCC3)nc(N3CCCC3)n2)CC1 [Example 64, 17α-hydroxy-21-[4-[2,6-bis(1-pyrrolidinyl)-4-pyrimidinyl]-1-piperazinyl]pregna-4,9(11)-diene-3,20-dione (E)-2-butenedioate (1:1) salt]	demonstrate inhibition of angiogenesis
COc1ccc(CCNCC(=O)[C@@]2(O)CC[C@H]3[C@@H]4C[C@H](C)C5=CC(=O)C=C[C@]5(C)[C@H]4[C@@H](O)C[C@@]32C)cc1OC [Example 34, 11β,17α-dihydroxy-21-[[2-(3,4-dimethoxyphenyl)ethyl]-amino]-6α-methylpregna-1,4-diene-3,20-dione hydrochloride]	demonstrate inhibition of angiogenesis
C[C@]12C[C@@H](O)[C@H]3[C@@H](CCC4=CC(=O)CC[C@@]43C)[C@@H]1CC[C@@H]2C(=O)CN1CCN(c2ccccn2)CC1.Cl.Cl [Example 36, 11α-hydroxy-21-[4-(2-pyridinyl)-1-piperazinyl]pregn-4-ene-3,20-dione, dihydrochloride]	demonstrate inhibition of angiogenesis
C[C@]12CCC(=O)C=C1CC[C@@H]1[C@@H]2C(=O)C[C@@]2(C)[C@H]1CC[C@]2(O)C(=O)CN1CCN(c2ccccn2)CC1 [Example 20]	demonstrate inhibition of angiogenesis
CCN(CC)c1cc(N2CCN(CC(=O)[C@@]3(O)CC[C@H]4[C@@H]5C[C@H](C)C6=CC(=O)C=C[C@]6(C)C5=CC[C@@]43C)CC2)nc(N(CC)CC)n1 [Example 63, 21-[4-[2,6-bis(diethylamino)-4-pyrimidinyl]-1-piperazinyl]-17α-hydroxy-6α-methylpregna-1,4,9(11)-triene-3,20-dione(E)-2-butenedioate (1:1) salt]	demonstrate inhibition of angiogenesis
C[C@]12CC[C@@H](O)C[C@H]1CC[C@@H]1[C@@H]2C(=O)C[C@@]2(C)[C@H]1CC[C@]2(O)C(=O)CN1CCN(c2ccccn2)CC1 [Example 99, 3α,17α-dihydroxy-21-[4-(2-pyridinyl)-1-piperazinyl]-5β-pregnane-11,20-dione dihydrochloride hydrate]	demonstrate inhibition of angiogenesis
